Results reported in article PMC5219024, “New acetylenic derivatives of betulin and betulone, synthesis and cytotoxic activity” (Medicinal Chemistry Research, 2016).
≈ marks a conversion by molar mass, not a printed value.

Tests used:
[1] = system: HL-60 (human promyelocytic leukemia); assay: Antiproliferative assay in vitro (MTT), HL-60; format: cell-based; conditions: for IC50: Homo sapiens, HL-60 cancer cell line, 96 h exposure, read-out: Cytotoxic activity IC50, HL-60
Method: The tested cell lines were obtained from the American Type Culture Collection (Rockville, Maryland, USA) and maintained at the Cell Culture Collection of the Institute of Immunology and Experimental Therapy (Wrocław, Poland). The cells were seeded in 96-well plates (Sarstedt, USA) at a density of 10^4 cells per well in 100 µL of culture medium overnight. […] The normal mouse fibroblasts BALB3T3 was cultured in Dulbecco’s modified Eagle’s medium (Sigma-Aldrich, Chemie GmbH, Steinheim, Germany) supplemented with 2 mM glutamine (Sigma-Aldrich, Chemie GmbH, Steinheim, Germany) and 10 % fetal calf serum FBS (Sigma-Aldrich, Chemie GmbH, Steinheim, Germany). The all culture media were supplemented with streptomycin (100 µg/mL) and penicillin (100 U/mL) (both antibiotics from Polfa, Tarchomin, Poland). The cell cultures were maintained at 37 °C in humid atmosphere saturated with 5 % CO2. The MTT assay was used for the cytotoxicity screening against leukemia cells growing in suspension culture. This assay was performed after 96 h of the leukemia cells to varying concentrations (ranging from 1 to 100 µg/mL) of the tested substances. The derivatives of betulin were dissolved in 10 % DMSO to concentration of 1 mg/mL, and next diluted in culture medium to reach the required concentrations. […] During the last 3–4 h of incubation 20 µl of MTT solution were added to each well (MTT: 3-(4,5-dimethylthiazol-2-yl)-2,5-diphenyl tetrazolium bromide; stock solution: 5 mg/mL). The pale yellow MTT is reduced to a navy blue formazan in the mitochondria of living cells. At the end of incubation time, 80 µL of the lysing mixture was added to each well (lysing mixture: 225 mL dimethylformamide, 67.5 g sodium dodecyl sulfate and 275 mL of distilled water). After 24 h are formed the crystals of formazan, which are insoluble in aqueous solutions. The formazan crystals had been dissolved. The optical densities were read on a Multiskan RC photometer at 570 nm wavelength. The compounds in given concentration were examined in triplicates in each experiment which was repeated 3–5 times. The results of cytotoxic activity in vitro were expressed as an IC50 in µg/mL.

C=C(C)[C@@H]1CC[C@]2(COC(=O)OCCC)CC[C@]3(C)C(CCC4[C@@]5(C)CCC(=O)C(C)(C)C5CC[C@]43C)C12 (stereo partly shown) [Compound 22, 28-O-Propoxycarbonylbetulone]
IC50 [1]: 21.4 ± 2.1 µg/mL (≈ 40.6 µM) | melting point: 76 to 78 °C

C=C(C)[C@@H]1CC[C@]2(COC(=O)C#CC3CC3)CC[C@]3(C)C(CCC4[C@@]5(C)CCC(=O)C(C)(C)C5CC[C@]43C)C12 (stereo partly shown) [Compound 18, 28-O-(3-Cyclopropyl-2-propynoyl)betulone]
IC50 [1]: 33.9 ± 5.5 µg/mL (≈ 63.6 µM) | melting point: 93 to 97 °C

C=C(C)[C@@H]1CC[C@]2(COC(=O)CC)CC[C@]3(C)C(CCC4[C@@]5(C)CCC(=O)C(C)(C)C5CC[C@]43C)C12 (stereo partly shown) [Compound 15, 28-O-Propanoylbetulone]
IC50 [1]: 33.7 ± 5.5 µg/mL (≈ 67.8 µM)

C=CCOC(=O)OC[C@]12CC[C@@H](C(=C)C)C1C1CCC3[C@@]4(C)CCC(=O)C(C)(C)C4CC[C@@]3(C)[C@]1(C)CC2 (stereo partly shown) [Compound 23, 28-O-Allyloxycarbonylbetulone]
IC50 [1]: 28.4 ± 1.6 µg/mL (≈ 54.1 µM) | melting point: 123 to 125 °C

C#CCOC(=O)OC[C@]12CC[C@@H](C(=C)C)C1C1CCC3[C@@]4(C)CC[C@H](O)C(C)(C)C4CC[C@@]3(C)[C@]1(C)CC2 (stereo partly shown) [Compound 12]
IC50 [1]: 3.7 ± 0.5 µg/mL (≈ 7.05 µM)

C=C(C)[C@@H]1CC[C@]2(COC(=O)OCCC)CC[C@]3(C)C(CCC4[C@@]5(C)CC[C@H](O)C(C)(C)C5CC[C@]43C)C12 (stereo partly shown) [Compound 10, 28-O-Propoxycarbonylbetulin]
IC50 [1]: 26.8 ± 2.5 µg/mL (≈ 50.7 µM)

C=CC(=O)OC[C@]12CC[C@@H](C(=C)C)C1C1CCC3[C@@]4(C)CCC(=O)C(C)(C)C4CC[C@@]3(C)[C@]1(C)CC2 (stereo partly shown) [Compound 16, 28-O-(2-Propenoyl)betulone]
IC50 [1]: 5 ± 1.3 µg/mL (≈ 10.1 µM)

C=C(C)[C@@H]1CC[C@]2(COC(=O)C#CC)CC[C@]3(C)C(CCC4[C@@]5(C)CCC(=O)C(C)(C)C5CC[C@]43C)C12 (stereo partly shown) [Compound 21, 28-O-(2-Butynoyl)betulone]
IC50 [1]: 29.5 ± 5.4 µg/mL (≈ 58.2 µM) | melting point: 92 to 94 °C

C=CCOC(=O)OC[C@]12CC[C@@H](C(=C)C)C1C1CCC3[C@@]4(C)CC[C@H](O)C(C)(C)C4CC[C@@]3(C)[C@]1(C)CC2 (stereo partly shown) [Compound 11, 28-O-Allyloxycarbonylbetulin]
IC50 [1]: 14.9 ± 3.9 µg/mL (≈ 28.3 µM)

C#CC(=O)OC[C@]12CC[C@@H](C(=C)C)C1C1CCC3[C@@]4(C)CCC(=O)C(C)(C)C4CC[C@@]3(C)[C@]1(C)CC2 (stereo partly shown) [Compound 17, 28-O-Propynoylbetulone]
IC50 [1]: 0.3 ± 0.06 µg/mL (≈ 0.609 µM) | fold potent than betulin 1 against HL-60 ([1]; relative to betulin 1, HL-60): 24 fold | melting point: 93 to 96 °C
